The compounds below were run against USP7 (Homo sapiens, UniProt Q93009) (assay: USP7 inhibitory potency (Table 1)).
Format: biochemical

Chain of USP7 (Q93009 whole entry): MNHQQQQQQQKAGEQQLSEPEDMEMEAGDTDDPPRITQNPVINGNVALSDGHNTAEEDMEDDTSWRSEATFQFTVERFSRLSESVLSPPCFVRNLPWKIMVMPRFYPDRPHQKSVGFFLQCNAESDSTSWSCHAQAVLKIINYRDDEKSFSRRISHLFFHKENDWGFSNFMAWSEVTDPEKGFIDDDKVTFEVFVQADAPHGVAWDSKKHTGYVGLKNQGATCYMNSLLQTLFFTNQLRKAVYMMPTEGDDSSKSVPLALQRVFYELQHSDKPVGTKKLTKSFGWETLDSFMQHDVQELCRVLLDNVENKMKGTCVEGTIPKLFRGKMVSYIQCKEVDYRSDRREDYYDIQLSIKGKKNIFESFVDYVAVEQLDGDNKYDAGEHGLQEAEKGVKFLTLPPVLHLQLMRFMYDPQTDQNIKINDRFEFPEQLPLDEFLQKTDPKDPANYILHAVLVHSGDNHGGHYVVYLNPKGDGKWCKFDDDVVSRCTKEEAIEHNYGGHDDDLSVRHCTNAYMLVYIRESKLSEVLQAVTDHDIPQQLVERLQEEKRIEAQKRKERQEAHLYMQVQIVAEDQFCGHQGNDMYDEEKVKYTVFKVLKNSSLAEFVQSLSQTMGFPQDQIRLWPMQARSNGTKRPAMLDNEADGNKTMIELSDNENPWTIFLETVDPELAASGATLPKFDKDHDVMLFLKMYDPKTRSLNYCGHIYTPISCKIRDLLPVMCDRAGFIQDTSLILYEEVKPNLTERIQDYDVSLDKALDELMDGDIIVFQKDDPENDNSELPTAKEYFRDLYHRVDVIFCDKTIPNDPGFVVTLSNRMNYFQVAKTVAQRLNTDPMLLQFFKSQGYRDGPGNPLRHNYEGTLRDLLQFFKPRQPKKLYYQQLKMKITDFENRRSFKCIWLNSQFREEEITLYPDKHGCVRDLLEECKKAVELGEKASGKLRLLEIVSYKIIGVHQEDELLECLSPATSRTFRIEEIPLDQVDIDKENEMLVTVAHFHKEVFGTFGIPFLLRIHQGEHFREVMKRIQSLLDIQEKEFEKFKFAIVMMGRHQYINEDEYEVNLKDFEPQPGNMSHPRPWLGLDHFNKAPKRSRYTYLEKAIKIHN

Compared with CCC1(CO)Cc2nccc(-c3cc(Cl)cc4c3O[C@@H](C(=O)N3CCNCC3)C4)c2C1 (stereo partly drawn) [((2R)-5-chloro-7-(6-ethyl-6-(hydroxymethyl)-6,7-dihydro-5H-cyclopenta[b]pyridin-4-yl)-2,3-dihydrobenzofuran-2-yl)(piperazin-1-yl)methanone], CC[C@@H](O)c1cc2nccc(-c3cc(Cl)cc4c3O[C@@H](C(=O)N3CCNCC3)C4)c2s1 [((R)-5-chloro-7-(2-((R)-1-hydroxypropyl)thieno[3,2-b]pyridin-7-yl)-2,3-dihydrobenzofuran-2-yl)(piperazin-1-yl)methanone] is lower in IC50: 1000 to 10000 nM for the first, under 1000 nM for the second.

Compared with CC(O)c1ccc2c(-c3cc(Cl)cc4c3O[C@@H](C(=O)N3CCNCC3)C4)ccnc2c1 (stereo partly drawn) [((2R)-5-chloro-7-(7-(1-hydroxyethyl)quinolin-4-yl)-2,3-dihydrobenzofuran-2-yl)(piperazin-1-yl)methanone], CCC(O)c1ccc2c(-c3cc(Cl)cc4c3O[C@@H](C(=O)N3CCNCC3)C4)ccnc2c1 (stereo partly drawn) [((2R)-5-chloro-7-(7-(1-hydroxypropyl)quinolin-4-yl)-2,3-dihydrobenzofuran-2-yl)(piperazin-1-yl)methanone] is higher in IC50: under 1000 nM for the first, 1000 to 10000 nM for the second. The first is the more potent here.

CC[C@H](O)c1cc2nccc(-c3cc(Cl)cc4c3O[C@@H](C(=O)N3CCNCC3)C4)c2s1 [((R)-5-chloro-7-(2-((S)-1-hydroxypropyl)thieno[3,2-b]pyridin-7-yl)-2,3-dihydrobenzofuran-2-yl)(piperazin-1-yl)methanone] and O=C([C@H]1Cc2cc(Cl)cc(-c3ccnc4cc(CCN5C(=O)CCC5=O)sc34)c2O1)N1CCNCC1 [(R)-1-(2-(7-(5-chloro-2-(piperazine-1-carbonyl)-2,3-dihydrobenzofuran-7-yl)thieno[3,2-b]pyridin-2-yl)ethyl)pyrrolidine-2,5-dione] cannot be ordered by IC50: under 1000 nM for the first, under 1000 nM for the second.

CN(C)C1CCCN(C(=O)[C@H]2Cc3cc(Cl)cc(-c4ccnc5cc(CO)sc45)c3O2)C1 (stereo partly drawn) [((R)-5-chloro-7-(2-(hydroxymethyl)thieno[3,2-b]pyridin-7-yl)-2,3-dihydrobenzofuran-2-yl)(3-(dimethylamino)piperidin-1-yl)methanone] and CN(C)[C@@H]1CCN(C(=O)[C@H]2Cc3cc(Cl)cc(-c4ccnc5cc(CO)sc45)c3O2)C1 [((R)-5-chloro-7-(2-(hydroxymethyl)thieno[3,2-b]pyridin-7-yl)-2,3-dihydrobenzofuran-2-yl)((R)-3-(dimethylamino)pyrrolidin-1-yl)methanone] cannot be ordered by IC50: under 1000 nM for the first, under 1000 nM for the second.

First: CN(C)[C@H]1CCN(C(=O)[C@H]2Cc3cc(Cl)cc(-c4ccnc5cc(CO)sc45)c3O2)C1 [((R)-5-chloro-7-(2-(hydroxymethyl)thieno[3,2-b]pyridin-7-yl)-2,3-dihydrobenzofuran-2-yl)((S)-3-(dimethylamino)pyrrolidin-1-yl)methanone]
Second: O=C([C@H]1Cc2cc(Cl)cc(-c3ccnc4cc(CO)sc34)c2O1)N1CC[C@H](O)C1 [((R)-5-chloro-7-(2-(hydroxymethyl)thieno[3,2-b]pyridin-7-yl)-2,3-dihydrobenzofuran-2-yl)((S)-3-hydroxypyrrolidin-1-yl)methanone]
The IC50 of the first is lower: 1000 to 10000 nM for the first, 10000 to 30000 nM for the second.

First: CN[C@H]1CCCN(C(=O)[C@H]2Cc3cc(Cl)cc(-c4ccnc5cc(CO)sc45)c3O2)C1 [((R)-5-chloro-7-(2-(hydroxymethyl)thieno[3,2-b]pyridin-7-yl)-2,3-dihydrobenzofuran-2-yl)((S)-3-(methylamino)piperidin-1-yl)methanone]
Second: CN[C@@H]1CCCN(C(=O)[C@H]2Cc3cc(Cl)cc(-c4ccnc5ccsc45)c3O2)C1 [((R)-5-chloro-7-(thieno[3,2-b]pyridin-7-yl)-2,3-dihydrobenzofuran-2-yl)((R)-3-(methylamino)piperidin-1-yl)methanone]
The IC50 of the first is lower: under 1000 nM for the first, 10000 to 30000 nM for the second.

CN(C)C1CCCN(C(=O)[C@H]2Cc3cc(Cl)cc(-c4ccnc5ccsc45)c3O2)C1 (stereo partly drawn) [((R)-5-chloro-7-(thieno[3,2-b]pyridin-7-yl)-2,3-dihydrobenzofuran-2-yl)(3-(dimethylamino)piperidin-1-yl)methanone] and CN(C)[C@@H]1CCN(C(=O)[C@H]2Cc3cc(Cl)cc(-c4ccnc5ccsc45)c3O2)C1 [((R)-5-chloro-7-(thieno[3,2-b]pyridin-7-yl)-2,3-dihydrobenzofuran-2-yl)((R)-3-(dimethylamino)pyrrolidin-1-yl)methanone] cannot be ordered by IC50: under 1000 nM for the first, under 1000 nM for the second.

Compared with CN(C)[C@H]1CCN(C(=O)[C@H]2Cc3cc(Cl)cc(-c4ccnc5ccsc45)c3O2)C1 [((R)-5-chloro-7-(thieno[3,2-b]pyridin-7-yl)-2,3-dihydrobenzofuran-2-yl)((S)-3-(dimethylamino)pyrrolidin-1-yl)methanone], CN[C@H]1CCCN(C(=O)[C@H]2Cc3cc(Cl)cc(-c4ccnc5ccsc45)c3O2)C1 [((R)-5-chloro-7-(thieno[3,2-b]pyridin-7-yl)-2,3-dihydrobenzofuran-2-yl)((S)-3-(methylamino)piperidin-1-yl)methanone] is lower in IC50: 1000 to 10000 nM for the first, under 1000 nM for the second.

Compared with O=C([C@H]1Cc2cc(Cl)cc(-c3ccnc4ccsc34)c2O1)N1CCN2CCCC2C1 (stereo partly drawn) [((R)-5-chloro-7-(thieno[3,2-b]pyridin-7-yl)-2,3-dihydrobenzofuran-2-yl)(hexahydropyrrolo[1,2-a]pyrazin-2(1H)-yl)methanone], O=C([C@H]1Cc2cc(Cl)cc(-c3ccnc4cc(CN5C(=O)CCC5=O)ccc34)c2O1)N1CCNCC1 [(R)-1-((4-(5-chloro-2-(piperazine-1-carbonyl)-2,3-dihydrobenzofuran-7-yl)quinolin-7-yl)methyl)pyrrolidine-2,5-dione] is lower in IC50: 1000 to 10000 nM for the first, under 1000 nM for the second. The second is the more potent here.

O=C([C@H]1Cc2cc(Cl)cc(-c3ccnc4cc(N5C(=O)CCC5=O)ccc34)c2O1)N1CCNCC1 [(R)-1-(4-(5-chloro-2-(piperazine-1-carbonyl)-2,3-dihydrobenzofuran-7-yl)quinolin-7-yl)pyrrolidine-2,5-dione] and O=C([C@H]1Cc2cc(Cl)cc(-c3ncnc4cc(CN5C(=O)CCC5=O)oc34)c2O1)N1CCNCC1 [(R)-1-((4-(5-chloro-2-(piperazine-1-carbonyl)-2,3-dihydrobenzofuran-7-yl)furo[3,2-d]pyrimidin-6-yl)methyl)pyrrolidine-2,5-dione] cannot be ordered by IC50: under 1000 nM for the first, under 1000 nM for the second.

CC[C@@H](O)c1cc2ncnc(-c3cc(Cl)cc4c3O[C@@H](c3onc5c3CNCC5)C4)c2s1 [(R)-1-(4-((R)-5-chloro-2-(4,5,6,7-tetrahydroisoxazolo[4,3-c]pyridin-3-yl)-2,3-dihydrobenzofuran-7-yl)thieno[3,2-d]pyrimidin-6-yl)propan-1-ol] and CC[C@@H](O)c1cc2nccc(-c3cc(Cl)cc4c3O[C@@H](c3onc5c3CNCC5)C4)c2s1 [(R)-1-(7-((R)-5-chloro-2-(4,5,6,7-tetrahydroisoxazolo[4,3-c]pyridin-3-yl)-2,3-dihydrobenzofuran-7-yl)thieno[3,2-b]pyridin-2-yl)propan-1-ol] cannot be ordered by IC50: under 1000 nM for the first, under 1000 nM for the second.

First: CN(C)Cc1ncoc1[C@H]1Cc2cc(Cl)cc(-c3ccnc4ccsc34)c2O1 [(R)-1-(5-(5-chloro-7-(thieno[3,2-b]pyridin-7-yl)-2,3-dihydrobenzofuran-2-yl)oxazol-4-yl)-N,N-dimethylmethanamine]
Second: CN(C)Cc1ncoc1[C@H]1Cc2cc(Cl)cc(-c3ncnc4ccsc34)c2O1 [(R)-1-(5-(5-chloro-7-(thieno[3,2-d]pyrimidin-4-yl)-2,3-dihydrobenzofuran-2-yl)oxazol-4-yl)-N,N-dimethylmethanamine]
The IC50 of the first is lower: under 1000 nM for the first, 1000 to 10000 nM for the second.

First: OC1(c2cc3nccc(-c4cc(Cl)cc5c4O[C@@H](c4onc6c4CNCC6)C5)c3s2)CCC1 [(R)-1-(7-(5-chloro-2-(4,5,6,7-tetrahydroisoxazolo[4,3-c]pyridin-3-yl)-2,3-dihydrobenzofuran-7-yl)thieno[3,2-b]pyridin-2-yl)cyclobutan-1-ol]
Second: O=C1CCC(=O)N1Cc1ccc2c(-c3cc(Cl)cc4c3O[C@@H](c3onc5c3CNCC5)C4)ccnc2c1 [(R)-1-((4-(5-chloro-2-(4,5,6,7-tetrahydroisoxazolo[4,3-c]pyridin-3-yl)-2,3-dihydrobenzofuran-7-yl)quinolin-7-yl)methyl)pyrrolidine-2,5-dione]
The IC50 of the first is lower: under 1000 nM for the first, 1000 to 10000 nM for the second.

CC[C@@H](O)c1cc2nccc(-c3cc(Cl)cc4c3O[C@@](C)(c3onc5c3CNCC5)C4)c2s1 [(R)-1-(7-((R)-5-chloro-2-methyl-2-(4,5,6,7-tetrahydroisoxazolo[4,3-c]pyridin-3-yl)-2,3-dihydrobenzofuran-7-yl)thieno[3,2-b]pyridin-2-yl)propan-1-ol] and CC[C@@H](O)c1cc2nccc(-c3cc(Cl)cc4c3O[C@](C)(c3onc5c3CNCC5)C4)c2s1 [(R)-1-(7-((S)-5-chloro-2-methyl-2-(4,5,6,7-tetrahydroisoxazolo[4,3-c]pyridin-3-yl)-2,3-dihydrobenzofuran-7-yl)thieno[3,2-b]pyridin-2-yl)propan-1-ol] cannot be ordered by IC50: under 1000 nM for the first, under 1000 nM for the second.

O=C1CCC(=O)N1Cc1cc2ncnc(-c3cc(Cl)cc4c3O[C@@H](c3onc5c3CNCC5)C4)c2o1 [(R)-1-((4-(5-chloro-2-(4,5,6,7-tetrahydroisoxazolo[4,3-c]pyridin-3-yl)-2,3-dihydrobenzofuran-7-yl)furo[3,2-d]pyrimidin-6-yl)methyl)pyrrolidine-2,5-dione] and O=C1CCC(=O)N1Cc1cc2ncnc(-c3cc(Cl)cc4c3O[C@@H](c3onc5c3CNCC5)C4)c2s1 [(R)-1-((4-(5-chloro-2-(4,5,6,7-tetrahydroisoxazolo[4,3-c]pyridin-3-yl)-2,3-dihydrobenzofuran-7-yl)thieno[3,2-d]pyrimidin-6-yl)methyl)pyrrolidine-2,5-dione] cannot be ordered by IC50: under 1000 nM for the first, under 1000 nM for the second.

O=C([C@H]1Cc2cc(Cl)cc(-c3ncnc4cc(CN5C(=O)CCC5=O)sc34)c2O1)N1CCNCC1 [(R)-1-((4-(5-chloro-2-(piperazine-1-carbonyl)-2,3-dihydrobenzofuran-7-yl)thieno[3,2-d]pyrimidin-6-yl)methyl)pyrrolidine-2,5-dione] and Cn1nc2c(c1[C@H]1Cc3cc(Cl)cc(-c4ccnc5cc(CN6C(=O)CCC6=O)sc45)c3O1)CNCC2 [(R)-1-((7-(5-chloro-2-(2-methyl-4,5,6,7-tetrahydro-2H-pyrazolo[4,3-c]pyridin-3-yl)-2,3-dihydrobenzofuran-7-yl)thieno[3,2-b]pyridin-2-yl)methyl)pyrrolidine-2,5-dione] cannot be ordered by IC50: under 1000 nM for the first, under 1000 nM for the second.

Reference: patent US20210317134A1, “UBIQUITIN-SPECIFIC-PROCESSING PROTEASE 7 (USP7) MODULATORS AND USES THEREOF” (RAPT THERAPEUTICS, INC., priority 2019, published 2021)
